In US8822229B2, “Method for assaying keratan sulfate, assay kit therefor and method for detecting joint disease by using the same” (Seikagaku Corporation, priority 2008, dated 2014):

Columns and labels:
[1] = test system: adjuvant-induced arthritis (AIA) model in rats; assay: adjuvant-induced arthritis (AIA) model in rats, left hind paw edema volume; assay type: in vivo, rat; settings: incadronate 1 mg/kg s.c. once a day from day 14; day 35 after adjuvant; vs AIA control group
Description: (§1) In Example 5, 6-week-old male Lewis rats (SPF, Charles River Laboratories Japan, Inc.) were employed. The adjuvant was prepared by suspending heat-killed Mycobacterium butyricum (product of DIFCO) in liquid paraffin (product of Wako Pure Chemical Industries, Ltd.) at a concentration of 6 mg/mL. The adjuvant was subcutaneously administered to each of the rats in the right hind paw (0.3 mg/paw) without anesthesia. Fourteen days after administration, the rats were divided into 4 groups. To a non-treated normal control group, only liquid paraffin was administered to the rats in a similar manner. From the timing of the grouping, incadronate (Bisphonal (registered trademark) injection (10 mg), product of Astellas Pharma Inc.) was subcutaneously administered to the rats every day (once a day) at a dose of 1 mg/kg to the day before the day of sacrifice. […] The edema volume of the left hind paw was measured by means of a volumetric apparatus (TK-101CMP, product of UNICOM). […] The plasma KS level (non-treated control group, AIA control group, and incadronate-administered group) was determined on day 35 after administration of the adjuvant, by means of a conventional KS assay kit (5D4 assay system) and through the KS assay system of the present invention. […]

[2] = adjuvant-induced arthritis (AIA) model in rats, plasma KS level; assay type: in vivo, rat; settings: incadronate 1 mg/kg s.c. once a day from day 14; day 35 after adjuvant; BCD-4/MK-172 assay; vs AIA control group
Description: as §1

## O=P(O)(O)C(NC1CCCCCC1)P(=O)(O)O [incadronate]
[1]
  left paw volume: reduced as compared with the AIA control group
[2]
  plasma KS level: reduced as compared with the AIA control group
